Counter-ions that a name gives are not always drawn.
Tested on: Lewis strain laboratory rats
Test: In vivo alleviation of inflammation: polyarthritis (adjuvant, Mycobacterium butyricum) in rats, inhibition of paw volume increase
Details: po, rat; for inhibition in vivo at 15 mg/kg / inhibition in vivo at 25 mg/kg / inhibition in vivo at 10 mg/kg / inhibition in vivo at 40 mg/kg / inhibition in vivo at 50 mg/kg / inhibition in vivo at 30 mg/kg: 336 h, read-out: % INH. p.o. (percentage inhibition of pad swelling); for inhibition in vivo at 15 mg/kg: 15 mpk p.o.; for inhibition in vivo at 25 mg/kg: 25 mpk p.o.; for inhibition in vivo at 10 mg/kg: 10 mpk p.o.; for inhibition in vivo at 40 mg/kg: 40 mpk p.o.; for inhibition in vivo at 50 mg/kg: 50 mpk p.o.; for ED50: Rattus norvegicus, read-out: ED50 (effective dose to obtain a 50% inhibition of inflammation); for inhibition in vivo at 30 mg/kg: 30 mpk p.o.
Method: Polyarthritis was induced in Lewis strain laboratory rats (weight=about 200 grams) by injection of a suspension of Mycobacterium butyricum in mineral oil into the subplantar tissue of the mammal's hind paws. On day 10 after the injection, the rats were assigned to groups, and paw volumes and body weights were recorded. Paw volumes of the contralateral, uninjected hind paw were determined by mercury plethylsmography. Per oral (p.o.) dosing began and continued for five consecutive days thereafter. On day 14 after the initial injection, approximately four hours after the final dose was administered, paw volumes and body weights were recorded and quantitated.
Anti-inflammatory activity of the substituted pyrazole compounds is expressed as the percent inhibition of paw volume increase.

## COc1ccc(-n2nc(CCC(=O)O)c(Br)c2-c2ccc(Cl)cc2)cc1 [Compound 147, 3-[4-Bromo-5-(4-Chlorophenyl)-1-(4-methoxyphenyl)-3-pyrazolyl]-propionic acid]
  inhibition in vivo at 15 mg/kg: 79%

## CSc1ccc(-n2nc(CCCO)cc2-c2ccc(Cl)cc2)cc1 [Compound 47]
  inhibition in vivo at 25 mg/kg: 48%

## COc1ccc(-n2nc(CCC(=O)N(C)OC(=O)CCC(=O)N3CCOCC3)cc2-c2ccc(Cl)cc2)cc1 [Compound 136]
  inhibition in vivo at 10 mg/kg: 38%

## COc1ccc(-n2nc(CCC(C)=O)cc2-c2ccc(Cl)cc2)cc1 [Compound 23, 5-(4-Chlorophenyl)-1-(4-methoxyphenyl)-3-(3-oxobutyl)pyrazole]
  inhibition in vivo at 40 mg/kg: 53%

## COc1ccc(-n2nc(CCC(=O)N(O)C3CCCCC3)cc2-c2ccc(Cl)cc2)cc1 [Compound 82, 3-[5-(4-chlorophenyl)-1-(4-methoxyphenyl)-3-pyrazolyl]-N-cyclohexyl-N-hydroxypropanamide]
  inhibition in vivo at 15 mg/kg: 54%

## COc1ccc(-n2nc(CCC(=O)ONC(C)(C)C)cc2-c2ccc(Cl)cc2)cc1 [Compound 57, 0-[2-[5-(4-Chlorophenyl)-1-(4-methoxyphenyl)-3-pyrazolyl]ethylcarbonyl]-N-tert-butylhydroxylamine]
  inhibition in vivo at 25 mg/kg: 87%

## CC(=O)OCCCc1cc(-c2ccc(Cl)cc2)n(-c2ccccc2)n1 [Compound 7, 3-(3-Acetoxypropyl)-5-(4-chlorophenyl)-1-phenylpyrazole]
  inhibition in vivo at 50 mg/kg: 54%

## CCc1ccc(-c2cc(CCC(=O)N(C)O)nn2-c2ccc(OC)cc2)cc1 [Compound 119]
  inhibition in vivo at 10 mg/kg: 24%

## CCCCCCCC(=O)N(O)CCCc1cc(-c2ccc(Cl)cc2)n(-c2ccc(OC)cc2)n1 [Compound 154]
  inhibition in vivo at 10 mg/kg: 11%

## CCCCCCCCNC(=O)CCc1cc(-c2ccc(Cl)cc2)n(-c2ccc(OC)cc2)n1 [Compound 186]
  inhibition in vivo at 10 mg/kg: 37%

## COc1ccc(-n2nc(CCC(=O)N(O)C(C)C(=O)O)cc2-c2ccc(Cl)cc2)cc1 (centres unmarked) [Compound 145]
  inhibition in vivo at 10 mg/kg: 61%

## CS(=O)(=O)c1ccc(-n2nc(CCCO)cc2-c2ccc(Cl)cc2)cc1 [Compound 36]
  inhibition in vivo at 50 mg/kg: 40%

## CCCCCCCCN(O)C(=O)CCc1cc(-c2ccc(Cl)cc2)n(-c2ccc(OC)cc2)n1 [Compound 146]
  inhibition in vivo at 10 mg/kg: 29%

## COc1ccc(-n2nc(CCC(=O)NO)c(Br)c2-c2ccc(Cl)cc2)cc1 [Compound 150]
  inhibition in vivo at 15 mg/kg: 70%

## COc1ccc(-n2nc(CCC(=O)O)cc2-c2ccccc2C)cc1 [Compound 109]
  inhibition in vivo at 10 mg/kg: 1%

## COc1ccc(-n2nc(CCC(=O)N(C)O)cc2-c2ccc(Cl)cc2)cc1 [Compound 3a, 3-[5-(4-Chlorophenyl)-1-(4-methoxyphenyl)-3-pyrazolyl] -N-hydroxy-N-methylpropanamide sodium salt monohydrate]
  inhibition in vivo at 10 mg/kg: 65%

## COc1ccc(-n2nc(CCC(=O)N(O)C(C)C)cc2-c2ccc(Cl)cc2)cc1 [Compound 81, 3-[5-(4-chlorophenyl)-1-(4-methoxyphenyl)-3-pyrazolyl]-N-hydroxy-N-isopropylpropanamide]
  inhibition in vivo at 15 mg/kg: 50%

## COc1ccc(-n2nc(CCNC(=O)C(=O)N(C)O)cc2-c2ccc(Cl)cc2)cc1 [Compound 163]
  inhibition in vivo at 15 mg/kg: 28%

## COc1ccccc1-n1nc(CCC(=O)O)cc1-c1ccc(Cl)cc1 [Compound 103]
  inhibition in vivo at 10 mg/kg: 55%

## COc1ccc(-n2nc(CCCO)cc2-c2ccccc2)cc1 [Compound 10]
  inhibition in vivo at 50 mg/kg: 30%

## OCCCc1cc(-c2ccc(Cl)cc2)n(-c2ccc(Br)cc2)n1 [Compound 35, 1-(4-bromophenyl)-5-(4-chlorophenyl)-3-(3-hydroxypropyl) pyrazole]
  inhibition in vivo at 25 mg/kg: 65%

## COc1ccc(-n2nc(CC/C=C\CCCC(N)=O)cc2-c2ccc(Cl)cc2)cc1 [Compound 38]
  inhibition in vivo at 40 mg/kg: 40%

## COc1ccc(-n2nc(CCCO)cc2-c2ccc(-c3ccccc3)cc2)cc1 [Compound 54]
  inhibition in vivo at 25 mg/kg: 36%

## COc1ccc(-n2nc(CCC(=O)O)cc2-c2cccc(C)c2)cc1 [Compound 106]
  inhibition in vivo at 10 mg/kg: 11%

## CCC(O)CCc1cc(-c2ccc(Cl)cc2)n(-c2ccc(OC)cc2)n1 (centres unmarked) [Compound 177]
  inhibition in vivo at 15 mg/kg: 16%

## COc1ccc(-n2nc(CCC(=O)N(C)OC(=O)CN(C)C)cc2-c2ccc(Cl)cc2)cc1 [Compound 134, 3-[5-(4-Chlorophenyl)-1-(4-methoxyphenyl)-3-pyrazolyl]-N',N'-dimethylglycinyloxy-N-methylpropanamide]
  ED50: 12.5 mg/kg

## COc1ccc(-n2nc(CCC(=O)c3ccccc3)cc2-c2ccc(Cl)cc2)cc1 [Compound 181]
  inhibition in vivo at 15 mg/kg: 30%

## COC(=O)c1ccc(/C=C/CCc2cc(-c3ccc(Cl)cc3)n(-c3ccc(OC)cc3)n2)cc1 [Compound 25, 3-[4-(4-Carbomethoxyphenyl)-3(E)-butenyl]-5-(4-chlorophenyl)-1-(4-methoxyphenyl) pyrazole]
  inhibition in vivo at 25 mg/kg: 18%

## CCCCCOc1ccc(-n2nc(CCCO)cc2-c2ccc(Cl)cc2)cc1 [Compound 51]
  inhibition in vivo at 30 mg/kg: 6.4%

## O=[N+]([O-])c1ccc(-n2nc(CCCO)cc2-c2ccc(Cl)cc2)cc1 [Compound 48]
  inhibition in vivo at 40 mg/kg: 40%

## COc1ccc(-n2nc(CCC(C)O)cc2-c2ccc(Cl)cc2)cc1 (centres unmarked) [Compound 20, 5-(4-Chlorophenyl)-3-(3-hydroxybutyl)-1-(4-methoxyphenyl) pyrazole]
  inhibition in vivo at 40 mg/kg: 19%

## CCOC(=O)C(=O)N(O)CCCc1cc(-c2ccc(Cl)cc2)n(-c2ccc(OC)cc2)n1 [Compound 157, Ethyl N-[3-[5-(4-chlorophenyl)-1-(4-methoxyphenyl)-3-pyrazolyl]-propyl]-hydroxyoxamate]
  inhibition in vivo at 10 mg/kg: 51%

## Cc1ccc(-n2nc(CCCO)cc2-c2ccc(Cl)cc2)cc1 [Compound 37]
  inhibition in vivo at 25 mg/kg: 41%

## COc1ccc(-c2cc(CCC(=O)N(C)O)nn2-c2ccc(Cl)cc2)cc1 [Compound 112]
  ED50: 16.3 mg/kg

## COc1ccc(-n2nc(CCC(O)C(C)(C)C)cc2-c2ccc(Cl)cc2)cc1 (centres unmarked) [Compound 179]
  inhibition in vivo at 10 mg/kg: 36%

## COc1ccc(-n2nc(CCC(=O)N(C)O)cc2-c2ccc(C(F)(F)F)cc2)cc1 [Compound 79]
  ED50: 3.2 mg/kg

## CCN(O)C(=O)CCc1cc(-c2ccc(Cl)cc2)n(-c2ccc(OC)cc2)n1 [Compound 83, 3-[5-(4-chlorophenyl)-1-(4-methoxyphenyl)-3-pyrazolyl]-N-ethyl-N-hydroxypropanamide]
  inhibition in vivo at 15 mg/kg: 42%

## COc1ccc(-n2nc(CCC(=O)O)cc2-c2ccc(Cl)cc2)cc1OC [Compound 74]
  inhibition in vivo at 40 mg/kg: 17%

## CCN(CC)OC(=O)CCc1cc(-c2ccc(Cl)cc2)n(-c2ccc(OC)cc2)n1 [Compound 102]
  inhibition in vivo at 30 mg/kg: 87%

## COc1ccc(-n2nc(CCC(=O)O)c(Cl)c2-c2ccc(Cl)cc2)cc1 [Compound 182]
  inhibition in vivo at 15 mg/kg: 71%

## COc1ccc(-n2nc(CCC(=O)N(C)O)cc2-c2ccc(C)cc2)cc1 [Compound 111]
  inhibition in vivo at 15 mg/kg: 75%

## COc1ccc(-n2nc(CCC(=O)N(C)O)cc2-c2ccccc2C)cc1 [Compound 118]
  inhibition in vivo at 10 mg/kg: 6%

## COc1ccc(-n2nc(CCC(=O)NCC(=O)N(C)O)cc2-c2ccc(Cl)cc2)cc1 [Compound 89]
  inhibition in vivo at 15 mg/kg: 57%

## COc1ccc(-n2nc(CCCO)cc2-c2ccc(F)cc2)cc1 [Compound 30]
  inhibition in vivo at 25 mg/kg: 42%
